Reference: PubChem BioAssay AID1745844 (Carcinogenic Potency Database (CPDB), 2022)
Where “and” joins values, the source holds several entries; their conditions need not be identical. Identical values can stand only once. Calls of active or inactive are those of the source. The rule behind the calls is not given here.

Test system: rodent lifetime carcinogenesis bioassay, tumor incidence TD50
Test: chronic cancer bioassays in animals – CPDB, compiled studies (AID 1745844)
[1] = mouse, strain ddNi, males, in feed, site: liver, lesion: adenoma-like tumor, dosed 160 weeks, study length 160 weeks

## CCCCCCCC/C=C/CCCCCCCC(=O)OCCOCC(OCCO)C1OCC(OCCO)C1OCCO (centres undefined)
mouse, strain B6C3F1, females, in feed, site: any site (literature study), lesion: several types, types named in the paper, dosed 103 weeks, study length 104 weeks
  TD50: 42900 mg/kg/day (inactive)
mouse, strain B6C3F1, females, in feed, site: lung, lesion: alveolar/bronchiolar adenoma + alveolar/bronchiolar carcinoma, dosed 103 weeks, study length 104 weeks
  TD50: 332000 mg/kg/day
mouse, strain B6C3F1, males, in feed, site: any site (literature study), lesion: several types, types named in the paper, dosed 103 weeks, study length 104 weeks
  carcinogen call: negative (inactive)
rat, strain Fischer 344, females, in feed, site: liver, lesion: hepatocellular adenoma + hepatocellular carcinoma + neoplastic nodule, dosed 103 weeks, study length 104 weeks
  TD50: 15800 mg/kg/day
rat, strain Fischer 344, females, in feed, site: liver, lesion: hepatocellular adenoma, dosed 103 weeks, study length 104 weeks
  TD50: 15800 mg/kg/day (inactive)
rat, strain Fischer 344, males, in feed, site: adrenal medulla, lesion: pheochromocytoma benign, bilateral + pheochromocytoma, malignant + pheochromocytoma, benign, dosed 99 weeks, study length 99 weeks
  TD50: 2580 mg/kg/day
rat, strain Fischer 344, males, in feed, site: any site (literature study), lesion: several types, types named in the paper, dosed 99 weeks, study length 99 weeks
  TD50: 3290 mg/kg/day
rat, strain Fischer 344, males, in feed, site: liver, lesion: hepatocellular adenoma + hepatocellular carcinoma + neoplastic nodule, dosed 99 weeks, study length 99 weeks
  TD50: 217000 mg/kg/day

## Cc1c(O)cc2c(c1C)OC(C)(CCCC(C)CCCC(C)CCCC(C)C)CC2 (centres undefined)
mouse, strain B6C3F1, males, in feed, site: liver, lesion: hepatocellular carcinoma, dosed 96 weeks, study length 96 weeks
  TD50: 5220 mg/kg/day
mouse, strain B6C3F1, males, in feed, site: liver, lesion: several types, types named in the paper, dosed 96 weeks, study length 96 weeks
  TD50: 3610 mg/kg/day

## Cc1cc(O)c2c(c1O)C(=O)C13C(=C2O)C(=O)C2C(O)C1C1C(O)C3C(=O)C3=C(O)c4c(O)cc(C)c(O)c4C(=O)C321 (centres undefined)
mouse, strain ddNi, females, in feed, site: liver, lesion: liver-cell adenoma, dosed 160 weeks, study length 160 weeks
  TD50: 122 mg/kg/day
mouse, strain ddNi, females, in feed, site: liver, lesion: liver-cell carcinoma, dosed 160 weeks, study length 160 weeks
  TD50: 248 mg/kg/day
mouse, strain ddNi, females, in feed, site: liver, lesion: several types, types named in the paper, dosed 160 weeks, study length 160 weeks
  TD50: 79.4 mg/kg/day
[1]
  TD50: 113 mg/kg/day
  carcinogen call: positive
mouse, strain ddNi, males, in feed, site: liver, lesion: hepatoma, dosed 160 weeks, study length 160 weeks
  TD50: 89.5 mg/kg/day and 74.3 mg/kg/day and 113 mg/kg/day
mouse, strain ddNi, males, in feed, site: liver, lesion: liver-cell adenoma, dosed 160 weeks, study length 160 weeks
  TD50: 83.7 mg/kg/day and 25.1 mg/kg/day and 231 mg/kg/day
mouse, strain ddNi, males, in feed, site: liver, lesion: liver-cell carcinoma, dosed 160 weeks, study length 160 weeks
  TD50: 332 mg/kg/day
mouse, strain ddNi, males, in feed, site: liver, lesion: several types, types named in the paper, dosed 160 weeks, study length 160 weeks
  TD50: 14.8 mg/kg/day

## CCN(N=O)C(N)=O
rat, strain F344/DuCrj, females, in drinking water, site: all sites, lesion: mononuclear-cell leukemia, dosed 103 weeks, study length 111 weeks
  TD50: 0.151 mg/kg/day
rat, strain F344/DuCrj, females, in drinking water, site: any site (literature study), lesion: several types, types named in the paper, dosed 103 weeks, study length 111 weeks
  TD50: 0.0687 mg/kg/day
rat, strain F344/DuCrj, females, in drinking water, site: brain, lesion: several types, types named in the paper, dosed 103 weeks, study length 111 weeks
  TD50: 0.904 mg/kg/day
rat, strain F344/DuCrj, females, in drinking water, site: digestive tract, lesion: several types, types named in the paper, dosed 103 weeks, study length 111 weeks
  TD50: 2.56 mg/kg/day
rat, strain F344/DuCrj, females, in drinking water, site: duodenum, lesion: several types, types named in the paper, dosed 103 weeks, study length 111 weeks
  TD50: 7.68 mg/kg/day
rat, strain F344/DuCrj, females, in drinking water, site: mammary gland, lesion: adenocarcinoma, dosed 103 weeks, study length 111 weeks
  TD50: 2.54 mg/kg/day
rat, strain F344/DuCrj, females, in drinking water, site: thyroid follicle, lesion: papillary adenoma, dosed 103 weeks, study length 111 weeks
  TD50: 8.7 mg/kg/day
rat, strain F344/DuCrj, females, in drinking water, site: uterus, endometrium, lesion: sarcoma, dosed 103 weeks, study length 111 weeks
  TD50: 2.56 mg/kg/day
rat, strain F344/DuCrj, females, in drinking water, site: uterus, lesion: adenoma, dosed 103 weeks, study length 111 weeks
  TD50: 4.08 mg/kg/day
rat, strain F344/DuCrj, females, in drinking water, site: uterus, lesion: endometrial stromal polyp, dosed 103 weeks, study length 111 weeks
  TD50: 0.883 mg/kg/day
rat, strain F344/DuCrj, males, in drinking water, site: any site (literature study), lesion: several types, types named in the paper, dosed 99 weeks, study length 111 weeks
  TD50: 0.025 mg/kg/day
rat, strain F344/DuCrj, males, in drinking water, site: brain, lesion: several types, types named in the paper, dosed 99 weeks, study length 111 weeks
  TD50: 0.997 mg/kg/day
rat, strain F344/DuCrj, males, in drinking water, site: digestive tract, lesion: several types, types named in the paper, dosed 99 weeks, study length 111 weeks
  TD50: 1.15 mg/kg/day
rat, strain F344/DuCrj, males, in drinking water, site: duodenum, lesion: several types, types named in the paper, dosed 99 weeks, study length 111 weeks
  TD50: 31.2 mg/kg/day
rat, strain F344/DuCrj, males, in drinking water, site: liver, lesion: neoplastic nodule, dosed 99 weeks, study length 111 weeks
  TD50: 16.4 mg/kg/day
rat, strain F344/DuCrj, males, in drinking water, site: lung, lesion: adenocarcinoma, dosed 99 weeks, study length 111 weeks
  TD50: 2 mg/kg/day
rat, strain F344/DuCrj, males, in drinking water, site: lung, lesion: adenoma, dosed 99 weeks, study length 111 weeks
  TD50: 0.518 mg/kg/day
rat, strain F344/DuCrj, males, in drinking water, site: mammary gland, lesion: fibroma, dosed 99 weeks, study length 111 weeks
  TD50: 0.889 mg/kg/day
rat, strain F344/DuCrj, males, in drinking water, site: peripheral nervous system, lesion: several types, types named in the paper, dosed 99 weeks, study length 111 weeks
  TD50: 10.2 mg/kg/day
rat, strain F344/DuCrj, males, in drinking water, site: peritoneum, lesion: mesothelioma, dosed 99 weeks, study length 111 weeks
  TD50: 0.109 mg/kg/day
rat, strain F344/DuCrj, males, in drinking water, site: subcutaneous tissue, lesion: fibroma, dosed 99 weeks, study length 111 weeks
  TD50: 2.42 mg/kg/day
rat, strain F344/DuCrj, males, in drinking water, site: thyroid follicle, lesion: papillary adenocarcinoma, dosed 99 weeks, study length 111 weeks
  TD50: 8.53 mg/kg/day
rat, strain F344/DuCrj, males, in drinking water, site: thyroid follicle, lesion: papillary adenoma, dosed 99 weeks, study length 111 weeks
  TD50: 3.9 mg/kg/day

## O=C(O)CCC(=O)O
rat, strain F344/DuCrj, females, in drinking water, site: any site (literature study), lesion: one or several types, types not named, dosed 104 weeks, study length 113 weeks
  TD50: 4820 mg/kg/day (inactive)
rat, strain F344/DuCrj, females, in drinking water, site: liver, lesion: one or several types, types not named, dosed 104 weeks, study length 113 weeks
  carcinogen call: negative (inactive)
rat, strain F344/DuCrj, males, in drinking water, site: any site (literature study), lesion: one or several types, types not named, dosed 104 weeks, study length 113 weeks
  carcinogen call: negative (inactive)
rat, strain F344/DuCrj, males, in drinking water, site: liver, lesion: hepatocellular adenoma, dosed 104 weeks, study length 113 weeks
  carcinogen call: negative (inactive)
rat, strain F344/DuCrj, males, in drinking water, site: liver, lesion: hepatocellular carcinoma, dosed 104 weeks, study length 113 weeks
  TD50: 54700 mg/kg/day (inactive)

## Nc1c(Cl)cc(Cl)cc1Cl
mouse, strain CD-1 HaM/ICR, females, in feed, site: any site (literature study), lesion: several types, types named in the paper, dosed 68 weeks, study length 77 weeks
  TD50: 914 mg/kg/day (inactive)
mouse, strain CD-1 HaM/ICR, females, in feed, site: liver, lesion: several types, types named in the paper, dosed 68 weeks, study length 77 weeks
  TD50: 927 mg/kg/day (inactive)
mouse, strain CD-1 HaM/ICR, females, in feed, site: lung, lesion: several types, types named in the paper, dosed 68 weeks, study length 77 weeks
  TD50: 1370 mg/kg/day (inactive)
mouse, strain CD-1 HaM/ICR, males, in feed, site: all sites, lesion: all vascular tumors, dosed 68 weeks, study length 77 weeks
  TD50: 273 mg/kg/day and 259 mg/kg/day
mouse, strain CD-1 HaM/ICR, males, in feed, site: any site (literature study), lesion: several types, types named in the paper, dosed 68 weeks, study length 77 weeks
  TD50: 206 mg/kg/day
mouse, strain CD-1 HaM/ICR, males, in feed, site: liver, lesion: hepatoma, dosed 68 weeks, study length 77 weeks
  TD50: 560 mg/kg/day
mouse, strain CD-1 HaM/ICR, males, in feed, site: liver, lesion: several types, types named in the paper, dosed 68 weeks, study length 77 weeks
  TD50: 452 mg/kg/day
mouse, strain CD-1 HaM/ICR, males, in feed, site: lung, lesion: several types, types named in the paper, dosed 68 weeks, study length 77 weeks
  TD50: 385 mg/kg/day (inactive)
rat, strain Charles River CD (Sprague-Dawley), males, in feed, site: any site (literature study), lesion: several types, types named in the paper, dosed 77 weeks, study length 116 weeks
  TD50: 45.9 mg/kg/day (inactive)
rat, strain Charles River CD (Sprague-Dawley), males, in feed, site: liver, lesion: several types, types named in the paper, dosed 77 weeks, study length 116 weeks
  carcinogen call: negative (inactive)

## O=NN1CN2CN(C1)CN(N=O)C2
rat, strain CB, males, i.p., site: liver, lesion: hepatoma, dosed 26 weeks, study length 100 weeks
  carcinogen call: negative (inactive)

## [N-]=[N+]=[N-]
rat, strain Charles River CD (Sprague-Dawley), females, in feed, site: mammary gland, lesion: one or several types, types not named, dosed 78 weeks, study length 104 weeks
  TD50: 3.01 mg/kg/day
rat, strain Charles River CD (Sprague-Dawley), females, in feed, site: pituitary gland, lesion: chromophobe adenoma, dosed 78 weeks, study length 104 weeks
  TD50: 16.1 mg/kg/day (inactive)
rat, strain Charles River CD (Sprague-Dawley), males, in feed, site: pituitary gland, lesion: chromophobe adenoma, dosed 78 weeks, study length 104 weeks
  carcinogen call: negative (inactive)
rat, strain Fischer 344, females, by gavage, site: any site (literature study), lesion: several types, types named in the paper, dosed 103 weeks, study length 104 weeks
  TD50: 19.1 mg/kg/day (inactive)
rat, strain Fischer 344, males, by gavage, site: any site (literature study), lesion: several types, types named in the paper, dosed 103 weeks, study length 104 weeks
  TD50: 8.26 mg/kg/day
rat, strain Fischer 344, males, by gavage, site: testis, lesion: interstitial-cell adenoma, bilateral + interstitial-cell adenoma, dosed 103 weeks, study length 104 weeks
  TD50: 3.79 mg/kg/day (inactive)

## CC1(C)COC1=O
mouse, strain B6C3F1, females, by gavage, site: any site (literature study), lesion: several types, types named in the paper, dosed 102 weeks, study length 103 weeks
  TD50: 179 mg/kg/day (inactive)
mouse, strain B6C3F1, females, by gavage, site: lung, lesion: alveolar/bronchiolar adenoma + alveolar/bronchiolar carcinoma, dosed 102 weeks, study length 103 weeks
  TD50: 482 mg/kg/day
mouse, strain B6C3F1, males, by gavage, site: any site (literature study), lesion: several types, types named in the paper, dosed 102 weeks, study length 103 weeks
  carcinogen call: negative (inactive)
mouse, strain B6C3F1, males, by gavage, site: lung, lesion: alveolar/bronchiolar adenoma + alveolar/bronchiolar carcinoma, dosed 102 weeks, study length 103 weeks
  TD50: 435 mg/kg/day
rat, strain Fischer 344, females, by gavage, site: any site (literature study), lesion: several types, types named in the paper, dosed 103 weeks, study length 105 weeks
  TD50: 200 mg/kg/day
rat, strain Fischer 344, females, by gavage, site: stomach, lesion: squamous-cell carcinoma + squamous-cell papilloma, dosed 103 weeks, study length 105 weeks
  TD50: 333 mg/kg/day
rat, strain Fischer 344, males, by gavage, site: any site (literature study), lesion: several types, types named in the paper, dosed 103 weeks, study length 105 weeks
  TD50: 181 mg/kg/day
rat, strain Fischer 344, males, by gavage, site: liver, lesion: hepatocellular adenoma + hepatocellular carcinoma + neoplastic nodule, dosed 103 weeks, study length 105 weeks
  TD50: 850 mg/kg/day
rat, strain Fischer 344, males, by gavage, site: stomach, lesion: squamous-cell carcinoma + squamous-cell papilloma, dosed 103 weeks, study length 105 weeks
  TD50: 154 mg/kg/day
rat, strain Fischer 344, males, by gavage, site: stomach, lesion: squamous-cell carcinoma, dosed 103 weeks, study length 105 weeks
  TD50: 532 mg/kg/day
